Laboratory results taken from US20150105252A1, “SUBSTITUTED PYRAZOLES AS HERBICIDES” (E I DU PONT DE NEMOURS AND COMPANY, priority 2013, published 2015).

How the values were obtained:
[1] = system: barnyardgrass; test: Test A preemergence; assay type: in vivo, Echinochloa crus-galli; details: 0 to 100 scale
Excerpt: (§1) Seeds of plant species selected from barnyardgrass (Echinochloa crus-galli), kochia (Kochia scoparia), common ragweed (Ambrosia elation), Italian ryegrass (Lolium multiflorum), crabgrass, large (large crabgrass, Digitaria sanguinalis), foxtail, giant (giant foxtail, Setaria faberii), morningglory (Ipomoea spp.), pigweed (redroot pigweed, Amaranthus retroflexus), velvetleaf (Abutilon theophrasti), wheat (Triticum aestivum), and corn (Zea mays) were planted into a blend of loam soil and sand and treated preemergence with a directed soil spray using test chemicals formulated in a non-phytotoxic solvent mixture which included a surfactant.
(§2) At the same time, plants selected from these crop and weed species and also blackgrass (Alopecurus myosuroides), and galium (catchweed bedstraw, Galium aparine) were planted in pots containing the same blend of loam soil and sand and treated with postemergence applications of test chemicals formulated in the same manner. Plants ranged in height from 2 to 10 cm and were in the one- to two-leaf stage for the postemergence treatment. Treated plants and untreated controls were maintained in a greenhouse for approximately 10 days, after which time all treated plants were compared to untreated controls and visually evaluated for injury. Plant response ratings, summarized in Table A, are based on a 0 to 100 scale where 0 is no effect and 100 is complete control. A dash (-) response means no test result.

[2] = system: crabgrass, large; test: Test A preemergence; assay type: in vivo, Digitaria sanguinalis; details: 0 to 100 scale
Excerpt: as §1, §2

[3] = system: foxtail, giant; test: Test A preemergence; assay type: in vivo, Setaria faberii; details: 0 to 100 scale
Excerpt: as §1, §2

[4] = system: morningglory; test: Test A preemergence; assay type: in vivo, Ipomoea spp.; details: 0 to 100 scale
Excerpt: as §1, §2

[5] = system: pigweed; test: Test A preemergence; assay type: in vivo, Amaranthus retroflexus; details: 0 to 100 scale
Excerpt: as §1, §2

[6] = system: velvetleaf; test: Test A preemergence; assay type: in vivo, Abutilon theophrasti; details: 0 to 100 scale
Excerpt: as §1, §2

[7] = system: wheat; test: Test A preemergence; assay type: in vivo, Triticum aestivum; details: 0 to 100 scale
Excerpt: as §1, §2

[8] = system: corn; test: Test A preemergence; assay type: in vivo, Zea mays; details: 0 to 100 scale
Excerpt: as §1, §2

[9] = system: barnyardgrass; test: Test A postemergence; assay type: in vivo, Echinochloa crus-galli; details: Postemergence
Excerpt: as §1, §2

[10] = system: crabgrass, large; test: Test A postemergence; assay type: in vivo, Digitaria sanguinalis
Excerpt: as §1, §2

[11] = system: foxtail, giant; test: Test A postemergence; assay type: in vivo, Setaria faberii
Excerpt: as §1, §2

[12] = system: morningglory; test: Test A postemergence; assay type: in vivo, Ipomoea spp.
Excerpt: as §1, §2

[13] = system: pigweed; test: Test A postemergence; assay type: in vivo, Amaranthus retroflexus
Excerpt: as §1, §2

[14] = system: velvetleaf; test: Test A postemergence; assay type: in vivo, Abutilon theophrasti
Excerpt: as §1, §2

[15] = system: wheat; test: Test A postemergence; assay type: in vivo, Triticum aestivum
Excerpt: as §1, §2

[16] = system: corn; test: Test A postemergence; assay type: in vivo, Zea mays
Excerpt: as §1, §2

[17] = Preemergence, 500 g ai/ha, 0 no effect, 100 complete control
[18] = preemergence, 125 g ai/ha, visual injury, approx. 10 days
[19] = 125 g ai/ha, 0 to 100 scale, 0 no effect, 100 complete control
[20] = 500 g ai/ha, visual rating after approx. 10 days, 0 to 100 scale (0 no effect, 100 complete control)
[21] = Postemergence, 500 g ai/ha, visual rating after approx. 10 days, 0 to 100 scale (0 no effect, 100 complete control)
[22] = postemergence, 125 g ai/ha, about 10 days, visual rating on 0 to 100 scale (0 no effect, 100 complete control)
[23] = Preemergence, 1000 g ai/ha, 0 no effect, 100 complete control
[24] = 1000 g ai/ha, visual rating after approx. 10 days, 0 to 100 scale (0 no effect, 100 complete control)
[25] = Postemergence, 1000 g ai/ha, visual rating after approx. 10 days, 0 to 100 scale (0 no effect, 100 complete control)
[26] = Postemergence, 125 g ai/ha, 0 to 100 scale, 0 no effect, 100 complete control

SMILES	Barnyardgrass plant response rating [1, 17]	Barnyardgrass plant response rating [1, 18]	Foxtail, Giant plant response rating [3, 17]	Morningglory plant response rating [4, 17]	Morningglory plant response rating [4, 18]	Pigweed plant response rating [5, 17]	Velvetleaf plant response rating [6, 17]	Wheat plant response rating [7, 18]	Corn plant response rating [8, 18]	Barnyardgrass plant response rating [9, 19]	Barnyardgrass plant response rating [9, 20]	Crabgrass, Large plant response rating [10, 21]	Crabgrass, Large plant response rating [10, 22]	Foxtail, Giant plant response rating [11, 21]	Foxtail, Giant plant response rating [11, 22]	Morningglory plant response rating [12, 21]	Morningglory plant response rating [12, 22]	Pigweed plant response rating [13, 21]	Pigweed plant response rating [13, 22]	Velvetleaf plant response rating [14, 21]	also measured
Cc1cc(C(=O)NCC(F)(F)C(F)(F)F)nn1Cc1cccc(C(F)(F)F)c1 [Compound 8]	0	0	0	0	0	10	0	0	0	0	10	20	10	20	10	100	80	40	10	10	Crabgrass, Large plant response rating [2, 17]: 0; Crabgrass, Large plant response rating [2, 18]: 0; Foxtail, Giant plant response rating [3, 18]: 0; Pigweed plant response rating [5, 18]: 0; Velvetleaf plant response rating [6, 18]: 0; Corn plant response rating [8, 17]: 0; Wheat plant response rating [15, 21]: 0; Wheat plant response rating [15, 22]: 0; Corn plant response rating [16, 21]: 0; Corn plant response rating [16, 22]: 0
Cc1cc(C(=O)NC2CC2)nn1Cc1ccc(F)c(C(F)(F)F)c1 [Compound 11]	50	10	60	30	10	100	20	0	0	0	10	40	20	30	10	80	70	100	60	40	Crabgrass, Large plant response rating [2, 17]: 90; Crabgrass, Large plant response rating [2, 18]: 60; Foxtail, Giant plant response rating [3, 18]: 20; Pigweed plant response rating [5, 18]: 60; Velvetleaf plant response rating [6, 18]: 0; Corn plant response rating [8, 17]: 0; Velvetleaf plant response rating [14, 22]: 30; Wheat plant response rating [15, 21]: 0; Wheat plant response rating [15, 22]: 0; Corn plant response rating [16, 21]: 20; Corn plant response rating [16, 22]: 0
Cc1cc(C(=O)NCC(F)(F)F)nn1Cc1ccc(F)c(C(F)(F)F)c1 [Compound 12]	30	0	60	10	0	100	0	0	0	10	20	50	30	30	20	90	50	100	80	50	Crabgrass, Large plant response rating [2, 17]: 60; Crabgrass, Large plant response rating [2, 18]: 40; Foxtail, Giant plant response rating [3, 18]: 10; Pigweed plant response rating [5, 18]: 70; Velvetleaf plant response rating [6, 18]: 0; Corn plant response rating [8, 17]: 0; Velvetleaf plant response rating [14, 22]: 40; Wheat plant response rating [15, 21]: 0; Wheat plant response rating [15, 22]: 0; Corn plant response rating [16, 21]: 20; Corn plant response rating [16, 22]: 10
Cc1cc(C(=O)NC2CC2)nn1Cc1cc(F)cc(C(F)(F)F)c1 [Compound 14]	10	0	90	20	0	100	0	0	0	0	10	40	20	20	0	80	50	70	50	30	Crabgrass, Large plant response rating [2, 17]: 90; Crabgrass, Large plant response rating [2, 18]: 10; Foxtail, Giant plant response rating [3, 18]: 10; Pigweed plant response rating [5, 18]: 100; Velvetleaf plant response rating [6, 18]: 0; Corn plant response rating [8, 17]: 0; Velvetleaf plant response rating [14, 22]: 20; Wheat plant response rating [15, 21]: 0; Wheat plant response rating [15, 22]: 0; Corn plant response rating [16, 21]: 10; Corn plant response rating [16, 22]: 0
CCNC(=O)c1cc(CC)n(Cc2cccc(C(F)(F)F)c2)n1 [Compound 17]																					Barnyardgrass plant response rating [1, 23]: 80; Crabgrass, Large plant response rating [2, 23]: 100; Foxtail, Giant plant response rating [3, 23]: 100; Morningglory plant response rating [4, 23]: 80; Pigweed plant response rating [5, 23]: 100; Velvetleaf plant response rating [6, 23]: 100; Wheat plant response rating [7, 23]: 20; Corn plant response rating [8, 23]: 10; Barnyardgrass plant response rating [9, 24]: 40; Crabgrass, Large plant response rating [10, 25]: 90; Foxtail, Giant plant response rating [11, 25]: 90; Morningglory plant response rating [12, 25]: 100; Pigweed plant response rating [13, 25]: 90; Velvetleaf plant response rating [14, 25]: 100; Wheat plant response rating [15, 25]: 30; Corn plant response rating [16, 25]: 40
Cc1cc(C(=O)NC2CC2)nn1Cc1cccc(OC(F)(F)F)c1 [Compound 21]	90	0	100	40	0	100	50	0	0	0	60	80	30	50	20	90	80	100	90	40	Velvetleaf plant response rating [14, 22]: 0; Wheat plant response rating [15, 21]: 10; Wheat plant response rating [15, 22]: 0; Corn plant response rating [16, 21]: 50; Corn plant response rating [16, 22]: 10
CCc1cc(C(=O)NCCC(F)(F)F)nn1Cc1cccc(C(F)(F)F)c1 [Compound 51]																					Barnyardgrass plant response rating [1, 23]: 10; Crabgrass, Large plant response rating [2, 23]: 20; Foxtail, Giant plant response rating [3, 23]: 80; Morningglory plant response rating [4, 23]: 10; Pigweed plant response rating [5, 23]: 10; Velvetleaf plant response rating [6, 23]: 0; Wheat plant response rating [7, 23]: 0; Barnyardgrass plant response rating [9, 24]: 10; Crabgrass, Large plant response rating [10, 25]: 30; Foxtail, Giant plant response rating [11, 25]: 10; Morningglory plant response rating [12, 25]: 100; Pigweed plant response rating [13, 25]: 50; Velvetleaf plant response rating [14, 25]: 100; Wheat plant response rating [15, 25]: 20; Corn plant response rating [16, 25]: 10
O=C(NCC(F)(F)F)c1cc(CCCl)n(Cc2ccnc(C(F)(F)F)c2)n1 [Compound 193]																					Morningglory plant response rating [12, 26]: 80; Pigweed plant response rating [13, 26]: 100; Velvetleaf plant response rating [14, 26]: 70; Wheat plant response rating [15, 26]: 0
